Results taken from ChEMBL document CHEMBL1201862, “PubChem BioAssay data set” (2004).
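Tested at 5 concentrations; 48 h exposure; 96-well plates; endpoints linearly interpolated, else capped at highest concentration. The concentration for 50% growth inhibition is given as GI50.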 Activity calls are given as the source filed them. Rule as the data show it: active = GI50 up to about 1.1 µM and inactive = higher.

What was measured:
Assay in all cases: NCI anticancer screen, dose series, 48 h
786-0 = tested on: 786-0
A498 = tested on: A498
A549 = tested on: A549
ACHN = tested on: ACHN
CAKI-1 = tested on: CAKI-1
CCRF-CEM = tested on: CCRF-CEM
COLO 205 = tested on: COLO 205
DLD-1 = tested on: DLD-1
DMS-114 = tested on: DMS-114
DMS-273 = tested on: DMS-273
EKVX = tested on: EKVX
HCC 2998 = tested on: HCC 2998
HCT-116 = tested on: HCT-116
HCT-15 = tested on: HCT-15
HL-60 = tested on: HL-60
HOP-18 = tested on: HOP-18
HOP-62 = tested on: HOP-62
HOP-92 = tested on: HOP-92
HT-29 = tested on: HT-29
IGROV-1 = tested on: IGROV-1
K562 = tested on: K562
KM-20L2 = tested on: KM-20L2
KM12 = tested on: KM12
LOX IMVI = tested on: LOX IMVI
LXFL 529 = tested on: LXFL 529
M14 = tested on: M14
M19-MEL = tested on: M19-MEL
MOLT-4 = tested on: MOLT-4
Malme-3M = tested on: Malme-3M
NCI-H226 = tested on: NCI-H226
NCI-H23 = tested on: NCI-H23
NCI-H460 = tested on: NCI-H460
NCI-H522 = tested on: NCI-H522
OVCAR-3 = tested on: OVCAR-3
OVCAR-4 = tested on: OVCAR-4
OVCAR-5 = tested on: OVCAR-5
OVCAR-8 = tested on: OVCAR-8
RPMI-8226 = tested on: RPMI-8226
RXF 393 = tested on: RXF 393
SF-268 = tested on: SF-268
SF-295 = tested on: SF-295
SK-MEL-28 = tested on: SK-MEL-28
SK-OV-3 = tested on: SK-OV-3
SN12C = tested on: SN12C
SNB-19 = tested on: SNB-19
SNB-75 = tested on: SNB-75
SNB-78 = tested on: SNB-78
SR = tested on: SR
SW-620 = tested on: SW-620
TK-10 = tested on: TK-10
U-251 = tested on: U-251
UACC-257 = tested on: UACC-257
UACC-62 = tested on: UACC-62
UO-31 = tested on: UO-31
XF498 = tested on: XF498

SMILES: O=C(Nc1ccc(Br)cc1)C(=O)C(C(=O)c1ccc(Cl)c(Cl)c1)C1OC(=O)c2ccccc21 (stereo not given)
- GI50 (786-0): 15 µM (inactive)
- GI50 (A498): 16.2 µM (inactive)
- GI50 (A549): 16.4 µM (inactive)
- GI50 (ACHN): 16.3 µM (inactive)
- GI50 (CAKI-1): 14.4 µM (inactive)
- GI50 (CCRF-CEM): 10 µM (inactive)
- GI50 (COLO 205): 16.4 µM (inactive)
- GI50 (DLD-1): 18.3 µM (inactive)
- GI50 (DMS-114): 10.9 µM (inactive)
- GI50 (DMS-273): 19.1 µM (inactive)
- GI50 (EKVX): 28.8 µM (inactive)
- GI50 (HCC 2998): 14.6 µM (inactive)
- GI50 (HCT-116): 12.5 µM (inactive)
- GI50 (HCT-15): 20.9 µM
- GI50 (HL-60): 17.2 µM (inactive)
- GI50 (HOP-18): 14.4 µM (inactive)
- GI50 (HOP-62): 15.2 µM (inactive)
- GI50 (HOP-92): 15 µM (inactive)
- GI50 (HT-29): 21.3 µM (inactive)
- GI50 (IGROV-1): 18.5 µM (inactive)
- GI50 (K562): 12.5 µM (inactive)
- GI50 (KM-20L2): 33 µM (inactive)
- GI50 (KM12): 16.6 µM (inactive)
- GI50 (LOX IMVI): 17.6 µM (inactive)
- GI50 (LXFL 529): 9.98 µM (inactive)
- GI50 (M14): 15.4 µM (inactive)
- GI50 (M19-MEL): 15 µM (inactive)
- GI50 (MOLT-4): 10.4 µM (inactive)
- GI50 (Malme-3M): 10.4 µM (inactive)
- GI50 (NCI-H226): 4.56 µM (inactive)
- GI50 (NCI-H23): 13.9 µM (inactive)
- GI50 (NCI-H460): 15.1 µM (inactive)
- GI50 (NCI-H522): 18.3 µM (inactive)
- GI50 (OVCAR-3): 18.5 µM (inactive)
- GI50 (OVCAR-4): 16.3 µM (inactive)
- GI50 (OVCAR-5): 17.3 µM (inactive)
- GI50 (OVCAR-8): 12.3 µM (inactive)
- GI50 (RPMI-8226): 39.7 µM (inactive)
- GI50 (RXF 393): 3.5 µM (inactive)
- GI50 (SF-268): 4.99 µM (inactive)
- GI50 (SF-295): 15.2 µM (inactive)
- GI50 (SK-MEL-28): 13.7 µM (inactive)
- GI50 (SK-OV-3): 35.1 µM (inactive)
- GI50 (SN12C): 20.2 µM (inactive)
- GI50 (SNB-19): 16.7 µM (inactive)
- GI50 (SNB-75): 20.8 µM (inactive)
- GI50 (SNB-78): 17.1 µM (inactive)
- GI50 (SR): 17.3 µM (inactive)
- GI50 (SW-620): 14 µM (inactive)
- GI50 (TK-10): 20.2 µM (inactive)
- GI50 (U-251): 8.97 µM (inactive)
- GI50 (UACC-257): 16 µM (inactive)
- GI50 (UACC-62): 13.4 µM (inactive)
- GI50 (UO-31): 18.5 µM (inactive)
- GI50 (XF498): 13.8 µM (inactive)
